{
  "source": "patent US8211695B2",
  "about": "“Isolated transgenic mammalian neural cell for detection of a sample containing a chemical substance damage to neurological system or selection of drugs for treating neurodegenerative disorders” (Taipei Medical University, priority 2010, dated 2012)",
  "test_system": "AhR",
  "experiment": "DRE driven luciferase activity of C6 DRE stable clone (pGL-2 pro/DRE) and pGL2 control cell line",
  "assay_type": "cell-based, rat",
  "conditions": "C6 glioma cells, pGL-2 pro/DRE stable clone versus pGL2 control cell line; FIG. 1",
  "text": "The plasmid pGL-2 pro/DRE was constructed by inserting a synthesized DNA fragment containing three rat dioxin responsive element (DRE, […] CGCAACTCGCTAGCATA; SEQ ID NO:1) between the KpnI and NheI sites of pGL2-promoter (pGL2 pro). To generate pGL-2 pro/DRE stable clones, plasmids pGL-2 pro/DRE and pCMV-Tag 2B were co-transfected into C6 glioma cells by Lipofectamine™ 2000. Meanwhile, plasmid pGL-2 pro and pCMV-Tag 2B were followed the same conditions to generate pGL-2 control cell line. These transfected cells were selected by Geneticin® (G418, 500 μg/ml) for 18 days. The stable clones of C6 cells were obtained and maintained in DMEM with 10% FBS and G418. To examine the stably insertion of pGL-2 pro/DRE or pGL-2 pro, the G418 resistant cells were harvested to extracted genomic DNA for polymerase chain reaction (PCR). The inserted DNA was confirmed to amplify 392 bps for pGL-2 pro/DRE stable insertion or 324 bps for pGL-2 pro (pGL-2) stable insertion, respectively. Finally, the metabolic degradable AhR agonist, 3-methylcholanthere (3MC), was used to examine the luciferase activity of pGL-2 pro/DRE C6 stable clones.\nThe metabolic degradable AhR agonist, 3-methylcholanthere (3MC), was used to examine the DRE driven luciferase activity of C6 DRE stable clone and pGL2 control cell line.",
  "data": [
    {"smiles": "Cc1ccc2cc3c(ccc4ccccc43)c3c2c1CC3", "note": "[3MC, 3-methylcholanthere]", "values": [
      {"measurement": "DRE driven luciferase activity (luminescence)", "result": "increase luminescence in a dose response only in DRE stable clone"}
    ]}
  ]
}
